Assay results published in PubChem BioAssay (NCI).
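1) Cells in 96-well plates. 2) Compound, 48 h, 5 concentrations. 3) Linear interpolation between surrounding doses. 4) Unreached endpoint = highest concentration. GI50: concentration for 50% inhibition of growth. TGI: total growth inhibition.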

What was measured:
Experiment in all cases: growth of human tumour cells (NCI), 48 h
786-0 renal = test system: 786-0 renal
A498 renal = test system: A498 renal
A549 NSCLC = test system: A549 NSCLC
ACHN renal = test system: ACHN renal
BT-549 breast = test system: BT-549 breast
CAKI-1 renal = test system: CAKI-1 renal
CCRF-CEM leukemia = test system: CCRF-CEM leukemia
COLO 205 colon = test system: COLO 205 colon
DU-145 prostate = test system: DU-145 prostate
EKVX NSCLC = test system: EKVX NSCLC
HCC-2998 colon = test system: HCC-2998 colon
HCT-116 colon = test system: HCT-116 colon
HCT-15 colon = test system: HCT-15 colon
HL-60(TB) leukemia = test system: HL-60(TB) leukemia
HOP-62 NSCLC = test system: HOP-62 NSCLC
HOP-92 NSCLC = test system: HOP-92 NSCLC
HS 578T breast = test system: HS 578T breast
HT29 colon = test system: HT29 colon
IGROV1 ovarian = test system: IGROV1 ovarian
K-562 leukemia = test system: K-562 leukemia
KM12 colon = test system: KM12 colon
LOX IMVI melanoma = test system: LOX IMVI melanoma
M14 melanoma = test system: M14 melanoma
MALME-3M melanoma = test system: MALME-3M melanoma
MCF7 breast = test system: MCF7 breast
MDA-MB-231 breast = test system: MDA-MB-231 breast
MDA-MB-435 = test system: MDA-MB-435
MOLT-4 leukemia = test system: MOLT-4 leukemia
NCI-H226 lung = test system: NCI-H226 lung
NCI-H23 lung = test system: NCI-H23 lung
NCI-H460 lung = test system: NCI-H460 lung
NCI-H522 lung = test system: NCI-H522 lung
NCI/ADR-RES ovarian = test system: NCI/ADR-RES ovarian
OVCAR-3 ovarian = test system: OVCAR-3 ovarian
OVCAR-4 ovarian = test system: OVCAR-4 ovarian
OVCAR-5 ovarian = test system: OVCAR-5 ovarian
OVCAR-8 ovarian = test system: OVCAR-8 ovarian
PC-3 prostate = test system: PC-3 prostate
RPMI-8226 leukemia = test system: RPMI-8226 leukemia
RXF 393 renal = test system: RXF 393 renal
SF-268 CNS = test system: SF-268 CNS
SF-295 CNS = test system: SF-295 CNS
SF-539 CNS = test system: SF-539 CNS
SK-MEL-2 melanoma = test system: SK-MEL-2 melanoma
SK-MEL-28 melanoma = test system: SK-MEL-28 melanoma
SK-MEL-5 melanoma = test system: SK-MEL-5 melanoma
SK-OV-3 ovarian = test system: SK-OV-3 ovarian
SN12C renal = test system: SN12C renal
SNB-19 CNS = test system: SNB-19 CNS
SNB-75 CNS = test system: SNB-75 CNS
SR leukemia = test system: SR leukemia
SW-620 colon = test system: SW-620 colon
T-47D breast = test system: T-47D breast
TK-10 renal = test system: TK-10 renal
U251 CNS = test system: U251 CNS
UACC-257 melanoma = test system: UACC-257 melanoma
UACC-62 melanoma = test system: UACC-62 melanoma
UO-31 renal = test system: UO-31 renal

Question: Which results are given for `CC(=O)Nc1ccc(CC[C@H]2CCC/C=C/[C@@H]3C[C@H](O)C[C@H]3[C@H](O)/C=C/C(=O)O2)cc1`?
Answer: GI50 (786-0 renal): 25.2 nM; TGI (786-0 renal): 83.8 nM; GI50 (A498 renal): 16 nM; TGI (A498 renal): 47.5 nM; GI50 (A549 NSCLC): 309 nM; TGI (A549 NSCLC): > 100000 nM; GI50 (ACHN renal): 375 nM; TGI (ACHN renal): > 47200 nM; GI50 (BT-549 breast): 182 nM; TGI (BT-549 breast): > 100000 nM; GI50 (CAKI-1 renal): 361 nM; TGI (CAKI-1 renal): > 21200 nM; GI50 (CCRF-CEM leukemia): 320 nM; TGI (CCRF-CEM leukemia): > 100000 nM; GI50 (COLO 205 colon): 139 nM; TGI (COLO 205 colon): 283 nM; GI50 (DU-145 prostate): 366 nM; TGI (DU-145 prostate): 4200 nM; GI50 (EKVX NSCLC): 191 nM; TGI (EKVX NSCLC): 4330 nM; GI50 (HCC-2998 colon): 78.1 nM; GI50 (HCT-116 colon): 184 nM; TGI (HCT-116 colon): 389 nM; GI50 (HCT-15 colon): 471 nM; TGI (HCT-15 colon): > 100000 nM; GI50 (HL-60(TB) leukemia): 337 nM; TGI (HL-60(TB) leukemia): 3950 nM; GI50 (HOP-62 NSCLC): 281 nM; GI50 (HOP-92 NSCLC): 217 nM; TGI (HOP-92 NSCLC): 791 nM; GI50 (HS 578T breast): 67.4 nM; TGI (HS 578T breast): > 93700 nM; GI50 (HT29 colon): 119 nM; TGI (HT29 colon): 951 nM; GI50 (IGROV1 ovarian): 88.7 nM; TGI (IGROV1 ovarian): 237 nM; GI50 (K-562 leukemia): 392 nM; TGI (K-562 leukemia): > 100000 nM; GI50 (KM12 colon): 98.3 nM; TGI (KM12 colon): 315 nM; GI50 (LOX IMVI melanoma): 91.2 nM; TGI (LOX IMVI melanoma): 405 nM; GI50 (M14 melanoma): 153 nM; TGI (M14 melanoma): > 100000 nM; GI50 (MALME-3M melanoma): 257 nM; TGI (MALME-3M melanoma): 573 nM; GI50 (MCF7 breast): 157 nM; TGI (MCF7 breast): 338 nM; GI50 (MDA-MB-231 breast): 82.6 nM; TGI (MDA-MB-231 breast): 252 nM; GI50 (MDA-MB-435): 151 nM; TGI (MDA-MB-435): > 100000 nM; GI50 (MOLT-4 leukemia): 345 nM; TGI (MOLT-4 leukemia): 2820 nM; GI50 (NCI-H226 lung): 66.7 nM; TGI (NCI-H226 lung): 295 nM; GI50 (NCI-H23 lung): 188 nM; TGI (NCI-H23 lung): 759 nM; GI50 (NCI-H460 lung): 365 nM; TGI (NCI-H460 lung): > 100000 nM; GI50 (NCI-H522 lung): 261 nM; TGI (NCI-H522 lung): 654 nM; GI50 (NCI/ADR-RES ovarian): 819 nM; TGI (NCI/ADR-RES ovarian): > 100000 nM; GI50 (OVCAR-3 ovarian): 217 nM; TGI (OVCAR-3 ovarian): 533 nM; GI50 (OVCAR-4 ovarian): 105 nM; GI50 (OVCAR-5 ovarian): 346 nM; TGI (OVCAR-5 ovarian): > 66400 nM; GI50 (OVCAR-8 ovarian): 82.1 nM; TGI (OVCAR-8 ovarian): > 100000 nM; GI50 (PC-3 prostate): 353 nM; TGI (PC-3 prostate): > 100000 nM; GI50 (RPMI-8226 leukemia): 222 nM; TGI (RPMI-8226 leukemia): 591 nM; GI50 (RXF 393 renal): 35.9 nM; TGI (RXF 393 renal): 150 nM; GI50 (SF-268 CNS): 59.4 nM; TGI (SF-268 CNS): > 100000 nM; GI50 (SF-295 CNS): 201 nM; TGI (SF-295 CNS): > 100000 nM; GI50 (SF-539 CNS): 423 nM; TGI (SF-539 CNS): > 100000 nM; GI50 (SK-MEL-2 melanoma): 313 nM; TGI (SK-MEL-2 melanoma): 963 nM; GI50 (SK-MEL-28 melanoma): 36.2 nM; TGI (SK-MEL-28 melanoma): 197 nM; GI50 (SK-MEL-5 melanoma): 18.8 nM; TGI (SK-MEL-5 melanoma): 34.8 nM; GI50 (SK-OV-3 ovarian): 66.7 nM; TGI (SK-OV-3 ovarian): > 100000 nM; GI50 (SN12C renal): 333 nM; TGI (SN12C renal): > 100000 nM; GI50 (SNB-19 CNS): 231 nM; TGI (SNB-19 CNS): > 100000 nM; GI50 (SNB-75 CNS): 44.6 nM; TGI (SNB-75 CNS): > 94700 nM; GI50 (SR leukemia): 215 nM; GI50 (SW-620 colon): 185 nM; TGI (SW-620 colon): 597 nM; GI50 (T-47D breast): 290 nM; GI50 (TK-10 renal): 172 nM; TGI (TK-10 renal): 1060 nM; GI50 (U251 CNS): 304 nM; TGI (U251 CNS): > 100000 nM; GI50 (UACC-257 melanoma): 59.6 nM; TGI (UACC-257 melanoma): > 100000 nM; GI50 (UACC-62 melanoma): 43.4 nM; TGI (UACC-62 melanoma): > 92400 nM; GI50 (UO-31 renal): 316 nM
